The numbers were not newly measured in US20200230082A1, “TOPICAL ACETAMINOPHEN FORMULATIONS FOR ITCH RELIEF” (UNIVERSITY OF MIAMI, priority 2017, published 2020), which cites them from elsewhere.

The structures appear in SMILES notation. Like-named read-outs stand apart in the source and are kept apart here.

For `CC(=O)Nc1ccc(O)cc1` [acetaminophen], the Solubility % by setting is: (solvent: Ethanol) 37^1%; (solvent: PEG-400) 18.9^3%; (solvent: Propylene Glycol) 9.8^2%; (solvent: Water) 1.7^1%.
